The results in this text go back to US20250304568A1, “PYRIMIDINES FOR DEGRADING BRUTON'S TYROSINE KINASE” (AbbVie Inc., priority 2022, published 2025).

For orientation: IC50 means the concentration at which inhibition is half-maximal.

Assay [1] has as its system TCL1-driven CLL bearing BTK^C481S mutation. The assay is described as follows: TCL1-driven CLL bearing BTK^C481S mutation in C57BL/6 mice, circulating leukemia burden. Format: in vivo. An excerpt:
Eμ-TCL1 CLL transgenic mice (Crogen Pharmaceuticals LLC) were crossed with […] knock-in mice (AbbVie) to generate Eμ-TCL1 transgenic mice carrying the […] mutation. The leukemic splenocytes from these BTK^C481S Eμ-TCL1 transgenic mice (Passage 1) were transplanted intravenously into C57BL/6 mice, leading to CLL development in the peripheral blood and spleen. When circulating CLL burden (CD5+CD19+ cells as described below) in the recipient mice reached over 90%, their splenocytes (Passage 2) containing high CLL burden were cryopreserved and used for CLL efficacy studies. […]
To determine the absolute/total leukocyte numbers, complete blood counts were determined for each mouse using the Genesis™ veterinary hematology analyzer (Oxford Science Inc.).
Cells isolated from murine peripheral blood mononuclear cells (PMBCs) were collected to determine antigen expression. […] Cells were gated on CD45+, and thereafter the percentage of cells that were CD5+CD19+ from that subset was calculated. […]
Whole blood was collected weekly post tumor implantation via submandibular cheek bleeding. Circulating leukemic burden was calculated by multiplying absolute/total leukocyte count with the percentage of the leukocytes have the immunophenotype CD19^+CD5^+. […]

For assay [2], the target named is Human BTK enzyme, wild-type (Homo sapiens (Human), UniProt Q06187). Description: BTK screening: Btk kinase activity, electrophoretic mobility shift assay (MSA). The conditions noted are these: 50 μM ATP, 0.5 nM BTK enzyme, 15 minutes pre-incubation. It counts as biochemical. Here is the method: Btk kinase activity was measured in vitro using an electrophoretic mobility shift assay (MSA). The ability of Btk to phosphorylate a fluorescent peptide substrate (FAM-GEEPLYWSFPAKKK-NH2) was measured. The kinase reactions were assembled in a total volume of 25 μL per well in 384 well plates. The following was added to each well: compound buffer (or control); enzyme buffer; and substrate buffer, as further described below. […]
The terminated reactions were analyzed using a 12 channel LABCHIP® 3000 microfluidic detection instrument (available from Caliper Life Sciences, Waltham, MA). […] As substrate and product peptides were separated, two peaks of fluorescence were observed. Change in the relative fluorescence intensity of the substrate and product peaks was the parameter measured, reflecting enzyme activity. […] Capillary electrophoregrams (RDA acquisition files) were analyzed using HTS Well Analyzer software (available from Caliper Life Sciences, Waltham, MA).
Activity in each sample was determined as the product to sum ratio (PSR): P/(S+P), where P was the peak height of the product peptide and S was the peak height of the substrate peptide. For each compound, enzyme activity was measured at various concentrations (12 concentrations of compound spaced by 3× dilution intervals). […]

In assay [3] the target is His-tagged Cereblon/DDB1 complex (Homo sapiens (Human), UniProt Q96SW2). The assay is described as follows: Cereblon binding assay (AlphaLISA Human Cereblon Binding Kit, competition). The following applies: 10 μM top dose, biotinylated ligand competition; read-out: CRBN IC50. Here is the method:
Cereblon binding was measured in vitro using an AlphaLISA® Human Cereblon Binding Kit (PerkinElmer, Waltham, MA) according to the manufacturer's protocol (“Alpha” refers to Amplified Luminescent Proximity Homogeneous Assay). In this assay, donor beads and acceptor beads come into proximity through ligand binding to CRBN protein. Excitation of the donor beads provokes the release of singlet oxygen that triggers a cascade of energy transfer reactions to the acceptor beads, resulting in a sharp peak in light emission at 615 nm.
Specifically, nickel chelate acceptor beads (PerkinElmer AL108M) were used to capture a 6×HIS-tagged CRBN protein, and streptavidin-coated donor beads (PerkinElmer 6760002) were used to capture 50 nM biotinylated ligand. […]
Detection: 10 μL detection reagents were added in low light conditions containing nickel chelate acceptor beads and streptavidin donor beads (Perkin Elmer 6760002), resulting in a final concentration 20 μg/ml. Plates were incubated 1 hour and read on a PerkinElmer™ Envision™ plate reader (680 nm excitation and […] emission settings). The IC50 of each compound was determined by calculating percent inhibition from no drug and no protein controls, and the Ki of each compound was calculated using the Cheng-Prusoff transformation. From the Ki, the ICs50 values were determined. […]
(In general: Bead proximity is the source of the signal in Alpha formats.)

For the molecule `Cc1cc(-c2cc(Nc3ccc(N4CCN(CCc5ccc(N6CCC(=O)NC6=O)cc5)C[C@@H]4C)cn3)ncn2)ccc1[C@@H](C)NC(=O)c1nc(C(C)(C)C)no1` [Example 1, 3-tert-butyl-N-[(1R)-1-{4-[6-({5-[(2S)-4-{2-[4-(2,4-dioxo-1,3-diazinan-1-yl)phenyl]ethyl}-2-methylpiperazin-1-yl]pyridin-2-yl}amino)pyrimidin-4-yl]-2-methylphenyl}ethyl]-1,2,4-oxadiazole-5-carboxamide], the “CLL burden control (no increase from the initial tumor burden)” value in assay [1] (Dosage 3 and Dosage 4, once daily (QD) for 19 days) is on record as “Complete CLL burden control”. Further, the “circulating leukemia burden (CD19+CD5+ CLL cells per μL)” value in assay [1] (once daily (QD) for 19 days, Dosage 1 to 4, dose-dependent manner, FIG. 1) was “controlled circulating leukemia burden”.

For the molecule `Cc1c([C@@H](C)NC(=O)c2nc(C(C)(C)C)no2)ccc(-c2cc(Nc3ccc(N4CCN(CCc5ccc(N6CCC(=O)NC6=O)cc5)CC4)cn3)ncn2)c1F` [Example 11, 3-tert-butyl-N-{(1R)-1-[4-(6-{[5-(4-{2-[4-(2,4-dioxo-1,3-diazinan-1-yl)phenyl]ethyl}piperazin-1-yl)pyridin-2-yl]amino}pyrimidin-4-yl)-3-fluoro-2-methylphenyl]ethyl}-1,2,4-oxadiazole-5-carboxamide], the IC50 in assay [2] came to 97.3 pM; in assay [3], 2.15 µM.

Turning to `Cc1c([C@@H](C)NC(=O)c2nc(C(C)(C)C)no2)ccc(-c2cc(Nc3ccc(N4CCN(CCc5ccc(N6CCC(=O)NC6=O)cc5)C[C@@H]4C)cn3)ncn2)c1F` [Example 10, 3-tert-butyl-N-[(1R)-1-{4-[6-({5-[(2S)-4-{2-[4-(2,4-dioxo-1,3-diazinan-1-yl)phenyl]ethyl}-2-methylpiperazin-1-yl]pyridin-2-yl}amino)pyrimidin-4-yl]-3-fluoro-2-methylphenyl}ethyl]-1,2,4-oxadiazole-5-carboxamide], the IC50 in assay [2] came out at 106 pM; in assay [3] it was 6.31 µM.
